Data set [1] in a line: 2-h plasma concentration of erlotinib in wild-type FVB/NCr mice. Type of data set: in vivo. Conditions: for concentration at 2 h: female, FVB/NCr, mouse, plasma, po. The method, then:
(§1) BAS 100 was obtained from Bioavailabilty Systems (Cocoa Beach, FL, USA), and erlotinib and OSI-420 were obtained from Toronto Research Chemicals (North York, ON, Canada). All other chemicals and reagents were purchased from Sigma-Aldrich (St Louis, MO, USA). Female BALB/c mice (6–8 weeks old) were kept in a controlled environment, with food and water available ad libitum. All procedures were carried out with NCI Animal Care and Use Committee approval. In the first study, BAS 100 and erlotinib were formulated in 10% DMSO and 5% polysorbate 80 in saline. Mice were randomised to receive erlotinib (10 mg kg^−1, p.o.) alone or 30 min after BAS 100 (10 mg kg^−1, p.o.). Blood was collected by cardiac puncture from three mice per time point at 0.083, 0.25, 0.5, 1, 2, 4, 6 and 24 h following erlotinib administration, and centrifuged to obtain plasma. In the second study, erlotinib was formulated in 0.3% carboxymethylcellulose and 0.1% polysorbate 80 in saline. Female CYP3A4 transgenic mice ([Granvil et al, 2003]) and wild-type FVB/NCr mice (14 weeks old) received erlotinib (10 mg kg^−1, p.o.) alone or 30 min after BAS 100 (25 mg kg^−1, p.o.). Blood was collected 2 h after erlotinib administration. All samples were stored at −80°C until analysis. Plasma concentrations of erlotinib and OSI-420 were measured as described previously ([Zhao et al, 2003]). Plasma concentrations of BAS 100 were measured by a novel liquid chromatography-tandem mass spectrometry method. Briefly, plasma samples were prepared by protein precipitation with acetonitrile. BAS 100 and the internal standard (temazepam) were resolved isocratically on a Waters XTerra MS C18 column (50 × 2.1 mm internal diameter; 3.5 μm particle size). The mass spectrometer was equipped with an electrospray ionisation source and operated in positive mode. Detection was performed by multiple reaction monitoring. The lower limit of quantitation was 10 ng ml^−1. Pharmacokinetic parameters were determined by noncompartmental analysis using WinNonlin Professional Version 5.2 (Pharsight Corporation, Mountain View, CA, USA). […]

For data set [2] the following is noted: ref Hidalgo et al, 2001, cited from earlier work.
A short description of data set [3]: 2-h plasma concentration of erlotinib in CYP3A4 transgenic mice. Conditions: female, mouse, in vivo, po, 10 mg kg^-1. As for the experimental part: as §1, with “Female CYP3A4 transgenic mice ([Granvil et al, 2003]) and wild-type FVB/NCr mice (14 weeks old) received erlotinib (10 mg kg^−1, p.o.) alone or 30 min after BAS 100 (25 mg kg^−1, p.o.). Blood was collected 2 h after erlotinib administration. All samples were stored at −80°C until analysis.” left out, “Briefly, plasma samples were prepared by protein precipitation with acetonitrile. BAS 100 and the internal standard (temazepam) were resolved isocratically on a Waters XTerra MS C18 column (50 × 2.1 mm internal diameter; 3.5 μm particle size). The mass spectrometer was equipped with an electrospray ionisation source and operated in positive mode. Detection was performed by multiple reaction monitoring.” left out

Data set [4] can be described thus: Plasma pharmacokinetics of erlotinib, OSI-420 and BAS 100 after oral dosing in BALB/c mice. It counts as in vivo. Particulars: for AUC(0-t) / Cmax / half-life: BALB/c; for AUC(0-t) / Cmax / half-life / Tmax: mouse, po; for half-life: read-out: HL λz (terminal half-life) (converted). As for the experimental part:
BAS 100 was obtained from Bioavailabilty Systems (Cocoa Beach, FL, USA), and erlotinib and OSI-420 were obtained from Toronto Research Chemicals (North York, ON, Canada). All other chemicals and reagents were purchased from Sigma-Aldrich (St Louis, MO, USA). Female BALB/c mice (6–8 weeks old) were kept in a controlled environment, with food and water available ad libitum. All procedures were carried out with NCI Animal Care and Use Committee approval. In the first study, BAS 100 and erlotinib were formulated in 10% DMSO and 5% polysorbate 80 in saline. Mice were randomised to receive erlotinib (10 mg kg^−1, p.o.) alone or 30 min after BAS 100 (10 mg kg^−1, p.o.). Blood was collected by cardiac puncture from three mice per time point at 0.083, 0.25, 0.5, 1, 2, 4, 6 and 24 h following erlotinib administration, and centrifuged to obtain plasma. In the second study, erlotinib was formulated in 0.3% carboxymethylcellulose and 0.1% polysorbate 80 in saline. Female CYP3A4 transgenic mice ([Granvil et al, 2003]) and wild-type FVB/NCr mice (14 weeks old) received erlotinib (10 mg kg^−1, p.o.) alone or 30 min after BAS 100 (25 mg kg^−1, p.o.). Blood was collected 2 h after erlotinib administration. All samples were stored at −80°C until analysis. Plasma concentrations of erlotinib and OSI-420 were measured as described previously ([Zhao et al, 2003]). Plasma concentrations of BAS 100 were measured by a novel liquid chromatography-tandem mass spectrometry method. Briefly, plasma samples were prepared by protein precipitation with acetonitrile. BAS 100 and the internal standard (temazepam) were resolved isocratically on a Waters XTerra MS C18 column (50 × 2.1 mm internal diameter; 3.5 μm particle size). The mass spectrometer was equipped with an electrospray ionisation source and operated in positive mode. Detection was performed by multiple reaction monitoring. The lower limit of quantitation was 10 ng ml^−1. Pharmacokinetic parameters were determined by noncompartmental analysis using WinNonlin Professional Version 5.2 (Pharsight Corporation, Mountain View, CA, USA). Bailer's method ([Bailer, 1988]) was used to estimate the variance of the area under the curve (AUC). A Z-test was used for the pairwise comparison of AUCs ([Yuan, 1993]).

Setting [5] is: female, plasma, 10 mg/kg, plasma, erlotinib 10 mg kg^-1 p.o. 30 min after BAS 100 10 mg kg^-1 p.o., BALB/c mice.
Where [6] appears, read: female, plasma, 10 mg/kg, erlotinib 10 mg kg^-1 p.o. alone (-BAS 100), BALB/c mice.

Like-named read-outs stand apart in the source and are kept apart here.

With `C#Cc1cccc(Nc2ncnc3cc(OCCOC)c(OCCOC)cc23)c1` [Erlotinib], in data set [1] (BAS 100 25 mg kg^-1 p.o.), the “fold increase in 2-h plasma concentration of erlotinib by BAS 100” value is 1.9 fold. Besides, the values for the concentration at 2 h in data set [1] (erlotinib 10 mg kg^-1 p.o. 30 min after BAS 100 25 mg kg^-1 p.o.), in data set [1] (erlotinib 10 mg kg^-1 p.o. alone) and in data set [3] were 1410 ± 237 ng/mL, 744 ± 135 ng/mL and 929 ± 80 ng/mL, respectively. The “relative extent of metabolism of erlotinib into OSI-420” value in data set [2] (cancer patients) is 0.12. In addition, the interindividual pharmacokinetic variability result in data set [2] (patients, Tan et al, 2004) was “up to eight-fold”. In addition, the “erlotinib exposure after 2.5-fold increase in the dose of BAS 100” value in data set [4] (BAS 100 25 mg kg^-1 vs 10 mg kg^-1, data not shown) was “did not result in a further increase in erlotinib exposure”. Moreover, in data set [4] (erlotinib 10 mg kg^-1 p.o. after BAS 100 10 mg kg^-1 p.o. vs alone, P<0.05), the “fold increase in the AUC of erlotinib by BAS 100” value is on record as 2.1 fold. In addition, the AUC(0-t) (as a rule, exposure summed from dosing to a finite time, without extrapolation to infinity) in data set [4] (setting [5]) came out at 38000 ng·h/mL; in data set [4] (setting [6]), 18000 ng·h/mL. The Cmax (usually the maximum level reached in the sampled fluid or tissue) was 3950 ng/mL in data set [4] (setting [5]) and 2320 ng/mL in data set [4] (setting [6]). The half-life – broadly, the time needed for the level to fall by half in the phase considered – in data set [4] (setting [5]) is 3.2 h; in data set [4] (female, plasma, 10 mg/kg, plasma, erlotinib 10 mg kg^-1 p.o. alone (-BAS 100), BALB/c mice), 3.1 h. In data set [4] (female, plasma, erlotinib 10 mg kg^-1 p.o. alone (-BAS 100), BALB/c mice, read-out: Tmax), the Tmax (usually the time from dosing to the highest level) came to 0.5 h.

On to `C#Cc1cccc(Nc2ncnc3cc(OCCOC)c(OCCO)cc23)c1` [OSI-420], for which, in data set [4] (in vivo, 10 mg/kg), the Tmax stood at 2.0 h.

(Values after paper PMC2391127, “Modulation of erlotinib pharmacokinetics in mice by a novel cytochrome P450 3A4 inhibitor, BAS 100” (British Journal of Cancer, 2008).)
